The structures appear in SMILES notation.

human TRPA1, sequence (O75762 whole entry, the tested form may be a part): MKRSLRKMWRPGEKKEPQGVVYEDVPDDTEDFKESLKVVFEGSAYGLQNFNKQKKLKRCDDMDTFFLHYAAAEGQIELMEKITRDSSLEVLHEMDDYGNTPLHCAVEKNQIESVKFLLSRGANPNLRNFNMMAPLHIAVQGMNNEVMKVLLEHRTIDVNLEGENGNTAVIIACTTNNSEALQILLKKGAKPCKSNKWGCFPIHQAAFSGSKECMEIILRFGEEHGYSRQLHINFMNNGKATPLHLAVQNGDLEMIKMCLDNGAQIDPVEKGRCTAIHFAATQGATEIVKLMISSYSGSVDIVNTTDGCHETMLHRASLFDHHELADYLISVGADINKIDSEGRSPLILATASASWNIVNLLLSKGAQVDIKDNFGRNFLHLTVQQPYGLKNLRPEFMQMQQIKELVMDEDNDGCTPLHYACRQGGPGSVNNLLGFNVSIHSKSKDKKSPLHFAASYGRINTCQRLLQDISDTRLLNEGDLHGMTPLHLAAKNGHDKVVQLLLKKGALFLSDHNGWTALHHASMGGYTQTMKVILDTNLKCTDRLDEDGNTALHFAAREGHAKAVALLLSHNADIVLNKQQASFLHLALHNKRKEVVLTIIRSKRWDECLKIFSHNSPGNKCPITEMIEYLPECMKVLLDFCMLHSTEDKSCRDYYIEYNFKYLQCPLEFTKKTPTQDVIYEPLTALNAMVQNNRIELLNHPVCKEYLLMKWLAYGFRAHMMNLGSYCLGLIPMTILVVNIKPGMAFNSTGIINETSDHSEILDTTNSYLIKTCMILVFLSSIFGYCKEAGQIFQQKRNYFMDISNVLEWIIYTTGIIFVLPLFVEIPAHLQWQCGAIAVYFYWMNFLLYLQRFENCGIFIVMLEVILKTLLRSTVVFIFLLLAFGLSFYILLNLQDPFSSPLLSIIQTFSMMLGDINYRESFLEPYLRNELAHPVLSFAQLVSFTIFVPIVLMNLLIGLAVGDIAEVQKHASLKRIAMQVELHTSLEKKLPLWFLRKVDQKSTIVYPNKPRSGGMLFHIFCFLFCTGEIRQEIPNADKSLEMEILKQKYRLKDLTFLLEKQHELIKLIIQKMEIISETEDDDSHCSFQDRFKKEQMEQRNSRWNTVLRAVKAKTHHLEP

The target in the test is human TRPA1 (Homo sapiens (Human), UniProt O75762). As to the kind of experiment: In vitro inhibition of human TRPA1, whole cell patch configuration. In kind it is cell-based. To be noted: current activation 10 μM AITC, tested concentrations 320 pM to 3.2 μM, read-out: hTRPA1 IC50. The method in brief:
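Whole-cell patch clamp, bath 150 mM NaCl, 10 mM HEPES, 1 mM EGTA, 3 mM MgCl2, pH 7.4 (sometimes 2 mM CaCl2, 1 mM MgCl2). Currents recorded continuously at −60 mV or by 400 ms ramps from −40 mV holding every 4 s; inward/outward currents taken at −80/80 mV, with controlled-temperature focal perfusion.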
For `COCC(=O)Cn1c(=O)c2c(ncn2[C@@H](C)C(=O)Nc2cccc(-c3cnc(N4CC5CC5C4)nc3)n2)n(C)c1=O` (stereo partly drawn) [Compound 165, (2S)—N-(6-(2-(3-azabicyclo[3.1.0]hexan-3-yl)pyrimidin-5-yl)pyridin-2-yl)-2-(1-(3-methoxy-2-oxopropyl)-3-methyl-2,6-dioxo-2,3-dihydro-1H-purin-7(6H)-yl)propanamide], the IC50 worked out at 7 nM. Turning to `Cc1noc(Cn2c(=O)c3c(ncn3[C@@H](C)C(=O)Nc3csc(-c4cnc(N5CC6CC6C5)nc4)n3)n(C)c2=O)n1` (stereo partly drawn) [Compound 166, (2S)—N-(2-(2-(3-azabicyclo[3.1.0]hexan-3-yl)pyrimidin-5-yl)thiazol-4-yl)-2-(3-methyl-1-((3-methyl-1,2,4-oxadiazol-5-yl)methyl)-2,6-dioxo-2,3-dihydro-1H-purin-7(6H)-yl)propanamide], the IC50 was 6 nM. The result for `Cc1noc(Cn2c(=O)c3c(ncn3[C@@H](C)C(=O)Nc3cccc(-c4cnc(N5CC6CC6C5)nc4)n3)n(C)c2=O)n1` (stereo partly drawn) [Compound 167, (2S)—N-(6-(2-(3-azabicyclo[3.1.0]hexan-3-yl)pyrimidin-5-yl)pyridin-2-yl)-2-(3-methyl-1-((3-methyl-1,2,4-oxadiazol-5-yl)methyl)-2,6-dioxo-2,3-dihydro-1H-purin-7(6H)-yl)propanamide] reads 4 nM; that for `CC#CCn1c(=O)c2c(ncn2[C@@H](C)C(=O)Nc2cccc(-c3cnc(N4CC5CC5C4)nc3)n2)n(C)c1=O` (stereo partly drawn) [Compound 168, (2S)—N-(6-(2-(3-azabicyclo[3.1.0]hexan-3-yl)pyrimidin-5-yl)pyridin-2-yl)-2-(1-(but-2-yn-1-yl)-3-methyl-2,6-dioxo-2,3-dihydro-1H-purin-7(6H)-yl)propanamide], 12 nM. The result for `CC#CCn1c(=O)c2c(ncn2[C@@H](C)C(=O)Nc2cccc(-c3cnc(N4CC5C(C4)C5(F)F)nc3)n2)n(C)c1=O` (stereo partly drawn) [Compound 169, (2S)-2-(1-(but-2-yn-1-yl)-3-methyl-2,6-dioxo-2,3-dihydro-1H-purin-7(6H)-yl)-N-(6-(2-(6,6-difluoro-3-azabicyclo[3.1.0]hexan-3-yl)pyrimidin-5-yl)pyridin-2-yl)propanamide] reads 10 nM. For `Cc1nc(Cn2c(=O)c3c(ncn3[C@@H](C)C(=O)Nc3cncc(-c4cnc(C)c(C(F)(F)F)c4)n3)n(C)c2=O)no1` [Compound 170, (S)-2-(3-methyl-1-((5-methyl-1,2,4-oxadiazol-3-yl)methyl)-2,6-dioxo-2,3-dihydro-1H-purin-7(6H)-yl)-N-(6-(6-methyl-5-(trifluoromethyl)pyridin-3-yl)pyrazin-2-yl)propanamide], the IC50 is 27 nM.

As to `Cc1nc(Cn2c(=O)c3c(ncn3[C@@H](C)C(=O)Nc3cccc(-c4cnc(C(F)(F)F)nc4)n3)n(C)c2=O)no1` [Compound 171, (S)-2-(3-methyl-1-((5-methyl-1,2,4-oxadiazol-3-yl)methyl)-2,6-dioxo-2,3-dihydro-1H-purin-7(6H)-yl)-N-(6-(2-(trifluoromethyl)pyrimidin-5-yl)pyridin-2-yl)propanamide], the IC50 was 23 nM.

As to `CC#CCn1c(=O)c2c(ncn2[C@@H](C)C(=O)Nc2ccnc(-c3cnc(N4CC5CC5C4)nc3)n2)n(C)c1=O` (stereo partly drawn) [Compound 173, (2S)—N-(2′-(3-azabicyclo[3.1.0]hexan-3-yl)-[2,5′-bipyrimidin]-4-yl)-2-(1-(but-2-yn-1-yl)-3-methyl-2,6-dioxo-2,3-dihydro-1H-purin-7(6H)-yl)propanamide], the IC50 was found to be 6 nM. Consider `Cc1nc2c(c(=O)n(Cc3ccccn3)c(=O)n2C)n1CC(=O)Nc1cccc(-c2ccc(Cl)cc2)n1` [Compound 174, N-(6-(4-chlorophenyl)pyridin-2-yl)-2-(3,8-dimethyl-2,6-dioxo-1-(pyridin-2-ylmethyl)-2,3-dihydro-1H-purin-7(6H)-yl)acetamide], for which the IC50 was 24 nM. As to `Cc1nc2c(c(=O)n(Cc3ccccn3)c(=O)n2C)n1CC(=O)Nc1cccc(-c2ccc(F)c(F)c2)n1` [Compound 175, N-(6-(3,4-difluorophenyl)pyridin-2-yl)-2-(3,8-dimethyl-2,6-dioxo-1-(pyridin-2-ylmethyl)-2,3-dihydro-1H-purin-7(6H)-yl)acetamide], the IC50 turned out to be 54 nM. Consider `Cc1nc2c(c(=O)n(Cc3ccccn3)c(=O)n2C)n1CC(=O)Nc1cccc(-c2cnc(C(F)(F)F)nc2)n1` [Compound 177, 2-(3,8-dimethyl-2,6-dioxo-1-(pyridin-2-ylmethyl)-2,3-dihydro-1H-purin-7(6H)-yl)-N-(6-(2-(trifluoromethyl)pyrimidin-5-yl)pyridin-2-yl)acetamide], for which the IC50 is 42 nM. For `Cn1c(=O)n(Cc2ccccn2)c(=O)c2c1ncn2CC(=O)Nc1csc(-c2ccc(F)c(F)c2)n1` [Compound 178, N-(2-(3,4-difluorophenyl)thiazol-4-yl)-2-(3-methyl-2,6-dioxo-1-(pyridin-2-ylmethyl)-2,3-dihydro-1H-purin-7(6H)-yl)acetamide], the IC50 worked out at 14 nM. The result for `CC(=O)Cn1c(=O)c2c(ncn2CC(=O)Nc2cccc(-c3ccc(Cl)cc3)n2)n(C)c1=O` [Compound 181, N-(6-(4-chlorophenyl)pyridin-2-yl)-2-(3-methyl-2,6-dioxo-1-(2-oxopropyl)-1,2,3,6-tetrahydropurin-7-yl)acetamide] reads 19 nM. With `CC(=O)Cn1c(=O)c2c(ncn2CC(=O)Nc2cccc(-c3ccc(F)c(F)c3)n2)n(C)c1=O` [Compound 182, N-(6-(3,4-difluorophenyl)pyridin-2-yl)-2-(3-methyl-2,6-dioxo-1-(2-oxopropyl)-1,2,3,6-tetrahydropurin-7-yl)acetamide], the IC50 turned out to be 42 nM. As for `CC(=O)Cn1c(=O)c2c(ncn2CC(=O)Nc2cccc(-c3cnc(N4CCC[C@H]4C(F)(F)F)nc3)n2)n(C)c1=O` [Compound 183, (S)-2-(3-methyl-2,6-dioxo-1-(2-oxopropyl)-1,2,3,6-tetrahydropurin-7-yl)-N-(6-(2-(2-(trifluoromethyl)pyrrolidin-1-yl)pyrimidin-5-yl)pyridin-2-yl)acetamide], the IC50 turned out to be 3 nM. In the case of `CC(O)Cn1c(=O)c2c(ncn2CC(=O)Nc2cccc(-c3cnc(N4CCC[C@H]4C(F)(F)F)nc3)n2)n(C)c1=O` (stereo partly drawn) [Compound 184, 2-(1-(2-hydroxypropyl)-3-methyl-2,6-dioxo-1,2,3,6-tetrahydropurin-7-yl)-N-(6-(2-((S)-2-(trifluoromethyl)pyrrolidin-1-yl)pyrimidin-5-yl)pyridin-2-yl)acetamide], the IC50 worked out at 310 nM. As for `CC(=O)Cn1c(=O)c2c(ncn2CC(=O)Nc2cccc(-c3cnc(C(F)(F)F)nc3)n2)n(C)c1=O` [Compound 185, 2-(3-methyl-2,6-dioxo-1-(2-oxopropyl)-2,3-dihydro-1H-purin-7(6H)-yl)-N-(6-(2-(trifluoromethyl)pyrimidin-5-yl)pyridin-2-yl)acetamide], the IC50 is 45 nM.

With `Cn1c(=O)n(Cc2ccccn2)c(=O)c2c1ncn2CC(=O)Nc1cccc(-c2cnc(C(F)(F)F)nc2)n1` [Compound 186, 2-(3-methyl-2,6-dioxo-1-(pyridin-2-ylmethyl)-2,3-dihydro-1H-purin-7(6H)-yl)-N-(6-(2-(trifluoromethyl)pyrimidin-5-yl)pyridin-2-yl)acetamide], the IC50 was 74 nM. For `Cn1c(=O)n(Cc2ccccn2)c(=O)c2c1ncn2CC(=O)Nc1cccc(-c2ccc(F)c(F)c2)n1` [Compound 187, N-(6-(3,4-difluorophenyl)pyridin-2-yl)-2-(3-methyl-2,6-dioxo-1-(pyridin-2-ylmethyl)-2,3-dihydro-1H-purin-7(6H)-yl)acetamide], the IC50 was determined as 74 nM. In the case of `Cn1c(=O)n(Cc2ccccn2)c(=O)c2c1ncn2CC(=O)Nc1cccc(-c2ccc(Cl)cc2)n1` [Compound 188, N-(6-(4-chlorophenyl)pyridin-2-yl)-2-(3-methyl-2,6-dioxo-1-(pyridin-2-ylmethyl)-2,3-dihydro-1H-purin-7(6H)-yl)acetamide], the IC50 was 33 nM.

Turning to `Cn1c(=O)n(Cc2ccccn2)c(=O)c2c1ncn2CC(=O)Nc1cccc(-c2cnc(N3CCC[C@H]3C(F)(F)F)nc2)n1` [Compound 189, (S)-2-(3-methyl-2,6-dioxo-1-(pyridin-2-ylmethyl)-2,3-dihydro-1H-purin-7(6H)-yl)-N-(6-(2-(2-(trifluoromethyl)pyrrolidin-1-yl)pyrimidin-5-yl)pyridin-2-yl)acetamide], the IC50 was found to be 2 nM.

As for `Cn1c(=O)n(Cc2ccccn2)c(=O)c2c1ncn2CC(=O)Nc1csc(-c2ccc(Cl)cc2)n1` [Compound 190], the IC50 turned out to be 17 nM. As for `Cn1c(=O)n(Cc2ccccn2)c(=O)c2c1ncn2CC(=O)Nc1csc(-c2cnc(C(F)(F)F)nc2)n1` [Compound 191, 2-(3-methyl-2,6-dioxo-1-(pyridin-2-ylmethyl)-2,3-dihydro-1H-purin-7(6H)-yl)-N-(2-(2-(trifluoromethyl)pyrimidin-5-yl)thiazol-4-yl)acetamide], the IC50 came out at 51 nM. Regarding `CC(=O)Cn1c(=O)c2c(nc(C)n2CC(=O)Nc2cccc(-c3ccc(Cl)cc3)n2)n(C)c1=O` [Compound 192, N-(6-(4-chlorophenyl)pyridin-2-yl)-2-(3,8-dimethyl-2,6-dioxo-1-(2-oxopropyl)-1,2,3,6-tetrahydropurin-7-yl)acetamide], the IC50 was found to be 33 nM. As for `CC(=O)Cn1c(=O)c2c(nc(C)n2CC(=O)Nc2cccc(-c3ccc(F)c(F)c3)n2)n(C)c1=O` [Compound 193, N-(6-(3,4-difluorophenyl)pyridin-2-yl)-2-(3,8-dimethyl-2,6-dioxo-1-(2-oxopropyl)-1,2,3,6-tetrahydropurin-7-yl)acetamide], the IC50 is 45 nM. As for `CC(=O)Cn1c(=O)c2c(nc(C)n2CC(=O)Nc2cccc(-c3cnc(C(F)(F)F)nc3)n2)n(C)c1=O` [Compound 194, 2-(3,8-dimethyl-2,6-dioxo-1-(2-oxopropyl)-1,2,3,6-tetrahydropurin-7-yl)-N-(6-(2-(trifluo-romethyl)pyrimidin-5-yl)pyridin-2-yl)acetamide], the figure is 62 nM; as for `CC(=O)Cn1c(=O)c2c(nc(C)n2CC(=O)Nc2cccc(-c3cnc(N4CCC[C@H]4C(F)(F)F)nc3)n2)n(C)c1=O` [Compound 195], 3 nM.

A word on the IC50: it is the concentration at which inhibition is half-maximal.
